The test system of test [1] is SI-PI-II (marker for plant proteinase inhibitors). Briefly: Transcriptional response of SI-PI-II in tomato plants exposed to volatiles (laboratory). In kind it is in vivo, Solanum lycopersicum cv. Moneymaker. The following applies: intact tomato plants exposed 24 h; filter paper, 1:10,000 ester:methanol; n=8. The procedure: Moneymaker tomato plants were used. Two weeks after seed germination, the seedlings were individually transplanted into pots (8×8×8 cm). The plants were kept at 25±2° C., with a constant relative humidity of 65%±5% and a 14:10 h (light:dark) photoperiod. Tomato plants that had not received any pesticide treatment at four weeks of age (about 20 cm tall) were used. All volatiles used were obtained from Sigma-Aldrich (St. Louis, Mo., USA). Each volatile was exposed by using a 2×2 cm piece of filter paper on which 10 μl of a solution containing the corresponding volatile at a concentration of 1:10,000 [(Z)-3-hexenyl ester:methanol] was impregnated as an emitting source of the corresponding volatile (Pérez-Hedo, M. et al. Biocontrol, 63: 203-213 (2018)).
To activate a plant, two pieces of filter paper impregnated with the volatile were placed at the bottom of a 30×30×30 cm plastic cage (BugDorm-1 Insect Tents; MegaView Science Co., Ltd, Taichung, Taiwan) into which the plant was introduced. A control treatment was carried out in which the two pieces of filter paper were impregnated with 10 μl of methanol. Eight repetitions per treatment were performed. The plants of the treatments were kept exposed to the volatile without disturbing for 24 hours in separate and isolated climatic chambers to avoid any interference from the volatiles and were kept at 25±2° C., 65±10% RH, and a 14:10 h (L:D) photoperiod. […]
The methodology followed for extracting and quantifying gene expression was described by Pérez-Hedo et al. Journal of Pest Science 3: 543-554 (2015). The primers used were forward primer: 5′-[…]-3′ (SEQ ID NO: 1) and reverse primer: 5′-[…]-3′ (SEQ ID NO: 2) for the quantification of PR1, forward primer: 5′-[…]-3′ (SEQ ID NO: 3) and reverse primer: 5′-[…]-3′ (SEQ ID NO: 4) for SI-PI-I, and forward primer: 5′-[…]-3′ (SEQ ID NO: 5) and reverse primer: 5′-[…]-3′ (SEQ ID NO: 6) for the SI-PI-II gene. […]

The subject of test [2] is Tetranychus urticae. Briefly: Y-tube olfactometer preference, exposed vs intact tomato plants. In kind it is in vivo. The following applies: plants exposed 24 h vs intact plants. From the text: (§1) It was studied whether the defensive activation achieved by exposure to (Z)-3-hexenyl propanoate could affect repellency and/or attraction in herbivores that attack tomatoes, the whitefly Bemisia tobaci (Gennadius) (Hemiptera: Aleyrodidae), the thrip Frankliniella occidentalis Pergande (Thysanoptera: Thripidae), the red spider Tetranychus urticae Koch (Acari: Tetranychidae) and the tomato borer, Tuta absoluta (Meyrick) (Lepidoptera: Gelechiidae), and in a natural enemy that has been used as a model organism in this crop, the parasitoid Encarsia formosa Gahan (Hymenoptera: Aphelinidae).
(§2) The last instar nymphs of B. tabaci and the pupae of E. formosa were provided by Koppert Biological Systems, S. L. (Águilas, Murcia, Spain). The recently emerged B. tabaci adults (less than 2 days old) were released into tomato plants inside 60×60×60 cm plastic cages (BugDorm-2) and placed in a climatic chamber at 25±2° C., 65±10% RH and a 14:10 h (L:D) photoperiod in IVIA. Five-day-old B. tabaci adults were used in all the experiments. In the case of E. formosa, the pupae were placed in a Petri dish 9 cm in diameter and allowed to emerge under ambient laboratory conditions (25±2° C.), with a small drop of honey as food. E. formosa females less than two days old were used in all the experiments. F. occidentalis adults came from a brood kept in captivity established in the Valencian Institute of Agrarian Research (Instituto Valenciano de Investigaciones Agrarias, IVIA) in 2010, originally from Campo de Cartagena (Murcia, Spain). The thrips brood was kept in bean pods (Phaseolus vulgaris L.; Fabales: Fabaceae) under the same conditions described above. All the F. occidentalis females used for experimentation were less than five days old. T. urticae adults were obtained from a colony established in IVIA in 2011, which initially came from clementines located in La Plana (Castelló, Spain). The mites were kept on tomato plants in a climatic chamber under the same conditions described above. T. absoluta females were obtained from colonies on tomatoes maintained in a greenhouse at IVIA at 25±4° C., 60±15% RH, and under a natural photoperiod. Newly emerged adult females less than 5 days old were used in all the assays.
(§3) To assess the preference of F. occidentalis, B. tabaci, T. urticae, T. absoluta and E. formosa for tomato plants that were previously exposed for 24 h to (Z)-3-HP relative to intact plants, a Y-shaped olfactometer was used. The plants were exposed to both volatiles as described above using the pieces of filter paper. The olfactometer (Analytical Research Systems, Gainesville, Fla.) consisted of a 2.4 cm in diameter Y-shaped glass tube with a 13.5 cm long base and two arms, each 5.75 cm long. Both side arms were connected via high-density polyethylene (HDPE) tubing to two identical glass jars (5-liter volume), each of which was connected to an air pump that produced a unidirectional humidified airflow at 150 ml/min (Pérez-Hedo et al. Journal of Pest Science 3: 543-554 (2015)).
(§4) For each species, a female was individually introduced into the inlet tube of the olfactometer and observed until she had walked at least 3 cm down one of the arms of choice or until 15 minutes had elapsed. A total of 40 valid replicates were recorded for each species for each pair of odor sources. Each individual was tested only once. […] After recording five responses, the Y-tube was rinsed with soapy water, cleaned with acetone, and allowed to dry for 5 minutes. […]

The subject of test [3] is Bemisia tabaci. Described as above. Conditions: plants exposed 24 h vs intact plants. In kind it is in vivo.
Description: as §1, §2, §3, §4

The test system of test [4] is Encarsia formosa. Described as above. The class given is in vivo. Conditions: plants exposed 24 h vs intact plants.
Description: as §1, §2, §3, §4

The test system of test [5] is Frankliniella occidentalis. Described as above. The class given is in vivo. Conditions: plants exposed 24 h vs intact plants.
Description: as §1, §2, §3, §4

Test [6] has as its system Tuta absoluta. The test is described as above. Conditions: plants exposed 24 h vs intact plants. In kind it is in vivo.
Description: as §1, §2, §3, §4

One molecule from patent US20230240290A1, “USE OF (Z)-3-HEXENYL ESTERS AND METHOD FOR PROTECTING PLANTS AGAINST PESTS” (UNIVERSITAT POLITÈCNICA DE VALÈNCIA, priority 2020, published 2023) can be followed below.

“Also recorded” adds a separate entry of the source.

For the molecule `CC/C=C\CCOC(=O)CC` [(Z)-3-hexenyl propanoate], in test [1], the “Transcriptional response of SI-PI-II compared to the control” value is “significantly overexpressed”. Moreover, the “Response of T. urticae females to exposed tomato plants” value in test [2] is recorded as “no preference”. The “Response of B. tabaci females to exposed tomato plants” value in test [3] is recorded as “repel; also recorded: repellent”. Moreover, the “Response of E. formosa females to exposed tomato plants” value in test [4] is given as “more attractive”. For the same molecule, the “Response of F. occidentalis females to exposed tomato plants” value in test [5] is recorded as “repel; also recorded: repellent”. Further, the “Response of T. absoluta females to exposed tomato plants” value in test [6] is “repel; also recorded: repellent”.
